Data published in patent publication US20100267742A1, “COMBINATION TARGETED THERAPY FOR LUNG CANCER” (RUSH UNIVERSITY MEDICAL CENTER, priority 2009, published 2010).
“Also recorded” adds a separate entry of the source.

Assays:
Type in all cases: cell-based, human
[1] = system: Calu3 cells; test: Cell proliferation / cell survival (viability) assay, Calcein-AM, 72 hours; conditions: for cell survival / cell viability / sensitivity: Calu3, 72 hours in culture, serum-starved; for effect on cell number (3-factor ANOVA): Calu3 cell line, no EGFR mutation, alone or in combination
Method: (§1) Lysates were prepared for immunoprecipitation and Western blotting from serum-starved Calu3 and H1975 cell lines after incubation with kinase inhibitors, including enzastaurin for PKCβ, and SU11274 for c-met. Specific site directed anti-phospho-antibodies were used to probe Western blots to determine the effect of respective inhibitors on downstream kinase activation. Proliferation and cell viability assays were performed with 10,000 cells seeded into 96-well plates and incubated with inhibitors in serum-starved cultures for 72 hours. Cell viability was determined by the addition of Calcein-AM (calcein-acetoxymethyl ester, diacetate) for the final 2 hours and plates were read at 515 nm. Lung carcinoma cell lines: H1975 and Calu-3 were cultured following ATCC guidelines. Cells are removed from flasks with cell dissociation buffer in PBS.

[2] = system: H1975 cells; test: as above; conditions: H1975 cell line, two EGFR mutations, alone or in combination
Method: as §1

[3] = system: kinase and receptor phosphorylation in Calu3 cells; test: Western blot with anti-phospho antibodies on lysates of serum-starved cells; conditions: for Akt (ser473) phosphorylation / EGFR (Y1068) phosphorylation: low doses alone versus combination
Method: (§2) Lysates were prepared for immunoprecipitation and Western blotting from serum-starved Calu3 and H1975 cell lines after incubation with kinase inhibitors, including enzastaurin for PKCβ, and SU11274 for c-met. Specific site directed anti-phospho-antibodies were used to probe Western blots to determine the effect of respective inhibitors on downstream kinase activation. Proliferation and cell viability assays were performed with 10,000 cells seeded into 96-well plates and incubated with inhibitors in serum-starved cultures for 72 hours. Cell viability was determined by the addition of Calcein-AM (calcein-acetoxymethyl ester, diacetate) for the final 2 hours and plates were read at 515 nm. Antibodies: Anti-EGFR, antiphospho-EGFR (Tyr845), anti-phospho-EGFR (Tyr1068), anti-phospho-Akt (Ser473), anti phospho-Erk1,2 (Thr202/Tyr204), anti-phospho-PKCα,β) were purchased from Cell Signaling. Cell cultures: Cells were serum starved for 18-24 hours prior to incubation with kinase inhibitors. Enzastaurin was added for a minimum of 3.5 hours of culture and SU11274 for at least one hour before preparation of lysates. Cell lysates: Media were removed from confluent monolayers of cells immediately before addition of lysis buffer (1 μg/ml aprotinin, 1 μg/ml leupeptin, 200 μM sodium vanadate (NaVO4), 0.1% NP-40, […], 20 mM EDTA, 1 mM PMSF in 50 mM Tris-HCl (pH 7.5). Cells were harvested and sonicated in lysis buffer. After 15 minutes on ice, lysates were microcentrifuged for 20 minutes. Supernatants were removed and protein concentrations therein determined spectrophotometrically with protein detection reagent. Western blots: 10-30 μg of lysate were mixed with loading buffer and boiled before loading into 7.5% Tris-HCl pre-cast SDS-PAGE gels for electrophoresis in SDS-glycine buffer for 90 minutes. Separated proteins were transferred from the gel to Hybond ECL nitrocellulose membrane using a Trans-Blot SD semi-dry transfer cell apparatus. The transfer ran at 20 volts for 35-40 minutes. Nitrocellulose membranes were washed in 1×Tris Buffered Saline-0.1% Tween 20 (TBS-T) then blocked with 5% BSA or 5% milk in TBS-T on rotator for one hour at room temperature or overnight at 4° C. 0.2% Sodium Azide (NaN3) was added to all blocking and primary antibody solutions. Nitrocellulose membranes were probed with 1:1000 or 1:2000 primary antibody.

[4] = system: kinase phosphorylation in H1975 cells; test: as above
Method: as §2

Row | Compound | cell survival / cell viability / sensitivity [1] | effect on cell number (3-factor ANOVA) ([1]; listed as SU) | effect on cell number (3-factor ANOVA) ([2]; listed as SU) | Akt (ser473) phosphorylation ([3]; Calu3) | EGFR (Y1068) phosphorylation ([3]; Calu3) | effect on cell number (3-factor ANOVA) ([1]; listed as Enzo 150) | effect on cell number (3-factor ANOVA) ([2]; listed as Enza150) | effect on cell number (3-factor ANOVA) ([2]; listed as Enzo150) | c-met phosphorylation ([3]; Calu3) | erbB3 phosphorylation ([3]; Calu3) | phosphorylation of PKC family members (pan-antibody against common phosphorylation sites) ([3]; Calu3) | sic phosphorylation ([3]; Calu3) | PKCαβ phosphorylation ([3]; Calu3, 3.5 hours in culture, serum-free medium) | sic phosphorylation ([4]; H1975) | PKCαβ phosphorylation ([4]; H1975, short-term incubation, serum-free medium)
1 | Cc1[nH]c(/C=C2\C(=O)Nc3ccc(S(=O)(=O)N(C)c4cccc(Cl)c4)cc32)c(C)c1C(=O)N1CCN(C)CC1 [SU11274] | significantly decreases the numbers of NSCLC cells | significant effect | neither SU nor Enzo150 alone has a significant effect; also recorded: not significantly effective | only minimal effects | only minimal effects | – | – | – | – | – | – | – | – | – | –
2 | Cn1cc(C2=C(c3cn(C4CCN(Cc5ccccn5)CC4)c4ccccc34)C(=O)NC2=O)c2ccccc21 [enzastaurin] | greatest sensitivity; also recorded: significantly decreases the numbers of NSCLC cells | – | – | only minimal effects | only minimal effects | significant effect | not significantly effective | neither SU nor Enzo150 alone has a significant effect | decreased | decreased | does not inhibit phosphorylation of all PKC family members | substantially decreased | dose dependent inhibition; also recorded: inhibited | only a moderate effect | inhibited
